Assay results as given in US4668674A, “(+)-6-chloro-5,10-dihy dro-5-[(1-methyl-4-piperidinyl)-acetyl]-11H-dibenzo[b,][1,4]diazepin-11-o ne, the isolation thereof and its use as a pharmaceutical material” (Dr. Karl Thomae GmbH, priority 1985, dated 1987).

What was measured:
[1] = ambient temperature; Arzneim.-Forsch./Drug Res. 34(II), 8, 849-859 (1984); cited from earlier work
Racemisation Test = type: physicochemical
[2] = tested on: secretion of gastric acid; experiment: Anti-ulcerative effect, inhibition of gastric acid secretion and effect on other gastro-intestinal diseases (general statement); type: in vivo; settings: for physiological/biological effectiveness: statement in words
[3] = tested on: volume and total acid secretion; experiment: Effect on rats after ligature of the pylorus (gastric juice volume and total acid); type: in vivo, Male Wistar rats; settings: rat, i.v.; for ED50 value: given immediately before pylorus ligature, 2 hours, 120 min
Experimental: Effect on rats after ligature of the pylorus
Male Wistar rats (weighing between 100 and 125 g) which had fasted for 24 hours but had free access to water was used. The rats were divided up into groups of 10 animals. The rats were anaesthetised with ether and the abdominal cavity was opened up by longitudinal cutting and the pylorus was tied off. Before ligature of the pylorus, the substances dissolved in saline solution were administered intravenously in metered doses (0.1 ml/100 g of body weight), the intravenous administration was carried out immediately before ligature of the pylorus; control animals were given only the saline solution. Two hours after the ligature the animals were killed and the stomachs were carefully removed. The stomach contents were collected and centrifuged for 15 minutes at 4000 rpm, then the supernatant was separated off in order to determine the volume of gastric juices. Using a pH measuring apparatus (I.T.T. Radiometer PHM 62) the acidity was measured by titration to pH 7 of 1 ml samples of the gastric juices.
The total acid was calculated from the product of the measured volume and acidity (microequivalent.ml) and expressed as microequivalents over 2 or 4 hours. The data obtained from the individual pretreated rats were compared with the average values obtained from the control groups and expressed as the percentage deviation. The percentage values were transformed into probits and subjected to linear regression analysis in order to determine the ED50 values for volume and total acid secretion, whilst observing 95% confidence limits.

[4] = pH 1 to 9, water, glycol, melt, up to 150° C., fifteen minutes

Q: For `CN1CCN(CC(=O)N2c3ccccc3C(=O)Nc3cccnc32)CC1` [pirenzepine], which “interconversion of enantiomeric forms” value [1] is on record?
A: Its value is “rapidly interconvert”.

Q: With `CN1CCC(CC(=O)N2c3ccccc3C(=O)Nc3cccc(Cl)c32)CC1` [(+) form, (+)-6-Chloro-5,10-dihydro-5-[(1-methyl-4-piperidinyl)-acetyl]-11H-dibenzo[b,e][1,4]diazepin-11-one] as the compound, how does the “formation of (-) enantiomer (HPLC)” value (Racemisation Test; [4]) read?
A: Its value is “no (-) enantiomer had formed”.

Q: And the “optical rotation on heating” value (Racemisation Test; [4])?
A: The value was “remained constant”.

Q: And the racemisation (Racemisation Test; [4])?
A: The racemisation was “no racemisation”.

Q: What about the “dosage needed to achieve the same results, relative to the mixture of enantiomers” value ([2]; compared with the mixture of enantiomers) of the same compound?
A: Its value is “approximately only half the dosage”.

Q: What about the “effect on various other diseases of the gastro-intestinal tract” value ([2]; particularly low bowel distress symptoms) of the same compound?
A: The value was “favourable effect on various other diseases of the gastro-intestinal tract”.

Q: What about the physiological/biological effectiveness [2] of the same compound?
A: The physiological/biological effectiveness was “physiologically highly effective”.

Q: What about the physiological/biological effectiveness ([2]; listed as Ia) of the same compound?
A: Its physiological/biological effectiveness is “biologically effective form”.

Q: And the anti-ulcerative effect ([2]; unlike the (-) form)?
A: The anti-ulcerative effect was “Powerful anti-ulcerative effect”.

Q: What about the “effect on the secretion of gastric acid” value ([2]; unlike the (-) form) of the same compound?
A: The value was “inhibitory effect on the secretion of gastric acid”.

Q: What about the ED50 value [3] of the same compound?
A: The ED50 value was 0.18 mg/kg.

Q: And the “activity in the pylorus ligature experiment” value ([3]; conclusion in words)?
A: Its value is “the form which carries the activity”.

Q: With `CN1CCC(CC(=O)N2c3ccccc3C(=O)Nc3cccc(Cl)c32)CC1` [formula I, 6-chloro-5,10-dihydro-5-[(1-methyl-4-piperidinyl)-acetyl]-11H-dibenzo[b,e][1,4]diazepin-11-one] as the compound, how does the “stability of enantiomeric forms” value (Racemisation Test; ambient temperature) read?
A: The value was “stable at ambient temperature”.

Q: For `CN1CCC(CC(=O)N2c3ccccc3C(=O)Nc3cccc(Cl)c32)CC1` [(-) form], which “quantity required to achieve the same results” value ([2]; (-) form, to achieve the same results) is on record?
A: Its value is “at least 50 times”.

Q: What about the “deviation from the average values of untreated control groups” value ([3]; 3 mg/kg) of the same compound?
A: Its value is 1.6%.

Q: What about the ED50 value [3] of the same compound?
A: The ED50 value was > 3 mg/kg.
